Measurements as given in patent US20260022143A1, “Cyclic Peptide Inhibitors of IL-23” (JANSSEN PHARMACEUTICA NV, priority 2022, published 2026).
Positions of bridges follow the written chain, without caps; N, C: chain ends. Non-standard residues stand in square brackets, D forms with d. Residues, ends and D or L forms follow the SMILES beside them. *: point of attachment. Me3N+(CH2)2O(CH2)2O(CH2)2CO = C[N+](C)(C)CCOCCOCCC(=O)*; CH2CH2OCH2CH2OCH2CH2NMe3+ = C[N+](C)(C)CCOCCOCC*; NH(CH2CH2O)2CH2CH2NMe3+ = C[N+](C)(C)CCOCCOCCN*; Trp(7-Me) = Cc1cccc2c(C[C@H](N)C(=O)O)c[nH]c12; 2Nal = N[C@@H](Cc1ccc2ccccc2c1)C(=O)O; 3Pal = N[C@@H](Cc1cccnc1)C(=O)O; X14 = C[N+](C)(C)CCc1cn(CC*)nn1; Lys(Me) = CNCCCC[C@H](N)C(=O)O; X53 = C[N+]1(CCOCCOCC*)CCOCC1; Pen = CC(C)(S)[C@H](N)C(=O)O; X84 = CN(CCC[N+](C)(C)C)CC*; X88 = COCC[N+](C)(C)CCCC*; Thp = NC1(C(=O)O)CCOCC1; X92 = COCC[N+](C)(C)CC*; X3 = C[N+](C)(C)CCCCC*; X72 = C[N+](C)(C)CCCC*; X91 = c1cc[n+](CC*)cc1; X42 = O=C(O)CCCCCCCC*; Sar = CNCC(=O)O

Experiment: Exposed Polar Surface Area (EPSA)
Assay type: physicochemical
Details: SFC on Chirex 3014 column; sample 1 mM DMSO stock; read-out: EPSA
Outline: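 EPSA, in Å^2, is read from SFC retention time through a linear relationship established with eight calibration standards. Separation uses a Chirex 3014 stationary phase, 35 °C, 14 MPa back pressure, and a 5–60% methanol/ammonium formate modifier gradient in CO2.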

EPSA | Compound
138 A^2 | CC(=O)N[C@@H]1C(=O)N[C@@H](CC(=O)N(C)C)C(=O)N[C@@H]([C@@H](C)O)C(=O)N[C@@H](Cc2c[nH]c3c(C)cccc23)C(=O)N[C@@H](CCCCN(C)C(=O)CCOCCOCC[N+](C)(C)C)C(=O)N[C@H](C(=O)N[C@@H](Cc2ccc(OCCOCCOCC[N+](C)(C)C)cc2)C(=O)N[C@@H](Cc2ccc3ccccc3c2)C(=O)NC2(C(=O)N[C@@H](CCCCN(C)C(C)=O)C(=O)N[C@@H](CC(N)=O)C(=O)N[C@@H](Cc3cccnc3)C(=O)N(C)CC(=O)N(C)C)CCOCC2)C(C)(C)SSC1(C)C [compound 217, MeCO-Pen(3)-N(N(Me)2)-T-7MeW-K(NMePEG3a)-Pen(3)-APEG3F-2Nal-THP-K(NMeAc)-N-3Pya-Sar-CON(Me)2] (Ac-[Pen]D(NMe2)T[Trp(7-Me)][Lys(Me)](Me3N+(CH2)2O(CH2)2O(CH2)2CO)[Pen]Y(CH2CH2OCH2CH2OCH2CH2NMe3+)[2Nal][Thp][Lys(Me)](Ac)N[3Pal][Sar]-NMe2; disulfide 1-6)
136 A^2 | CC(=O)N[C@@H]1C(=O)N[C@@H](CC(=O)N(C)C)C(=O)N[C@@H]([C@@H](C)O)C(=O)N[C@@H](Cc2c[nH]c3c(C)cccc23)C(=O)N[C@@H](CCCCN(C)C(C)=O)C(=O)N[C@H](C(=O)N[C@@H](Cc2ccc(OCCOCCOCC[N+](C)(C)C)cc2)C(=O)N[C@@H](Cc2ccc3ccccc3c2)C(=O)NC2(C(=O)N[C@@H](CCCCN(C)C(=O)CCOCCOCC[N+](C)(C)C)C(=O)N[C@@H](CC(N)=O)C(=O)N[C@@H](Cc3cccnc3)C(=O)N(C)CC(=O)N(C)C)CCOCC2)C(C)(C)SSC1(C)C [compound 218, MeCO-Pen(3)-N(N(Me)2)-T-7MeW-K(NMeAc)-Pen(3)-APEG3F-2Nal-THP-K(NMePEG3a)-N-3Pya-Sar-CON(Me)2] (Ac-[Pen]D(NMe2)T[Trp(7-Me)][Lys(Me)](Ac)[Pen]Y(CH2CH2OCH2CH2OCH2CH2NMe3+)[2Nal][Thp][Lys(Me)](Me3N+(CH2)2O(CH2)2O(CH2)2CO)N[3Pal][Sar]-NMe2; disulfide 1-6)
139 A^2 | CC(=O)N[C@@H]1C(=O)N[C@@H](CC(=O)N(C)C)C(=O)N[C@@H]([C@@H](C)O)C(=O)N[C@@H](Cc2c[nH]c3c(C)cccc23)C(=O)N[C@@H](CCCCN(C)C(C)=O)C(=O)N[C@H](C(=O)N[C@@H](Cc2ccc(OCCCCC[N+](C)(C)C)cc2)C(=O)N[C@@H](Cc2ccc3ccccc3c2)C(=O)NC2(C(=O)N[C@@H](CCCCN(C)C(C)=O)C(=O)N[C@@H](CC(N)=O)C(=O)N[C@@H](Cc3cccnc3)C(=O)N(C)CC(=O)NCCOCCOCC[N+](C)(C)C)CCOCC2)C(C)(C)SSC1(C)C [compound 219, MeCO-Pen(3)-N(N(Me)2)-T-7MeW-K(NMeAc)-Pen(3)-TMAPF-2Nal-THP-K(NMeAc)-N-3Pya-Sar-CO(NHPEG3a)] (Ac-[Pen]D(NMe2)T[Trp(7-Me)][Lys(Me)](Ac)[Pen]Y(X3)[2Nal][Thp][Lys(Me)](Ac)N[3Pal][Sar]-{NH(CH2CH2O)2CH2CH2NMe3+}; disulfide 1-6 (inferred))
141 A^2 | CC(=O)N(C)CCCC[C@@H]1NC(=O)[C@H](Cc2c[nH]c3c(C)cccc23)NC(=O)[C@H]([C@@H](C)O)NC(=O)[C@H](CC(=O)N(C)C)NC(=O)[C@@H](NC(=O)CCOCCOCC[N+](C)(C)C)C(C)(C)SSC(C)(C)[C@@H](C(=O)N[C@@H](Cc2ccc(OCCOCCOCC[N+]3(C)CCOCC3)cc2)C(=O)N[C@@H](Cc2ccc3ccccc3c2)C(=O)NC2(C(=O)N[C@@H](CCCCN(C)C(C)=O)C(=O)N[C@@H](CC(N)=O)C(=O)N[C@@H](Cc3cccnc3)C(=O)N(C)CC(=O)N(C)C)CCOCC2)NC1=O [compound 223, cPEG3aCO-Pen(3)-N(N(Me)2)-T-7MeW-K(NMeAc)-Pen(3)-MMPEG3F-2Nal-THP-K(NMeAc)-N-3Pya-Sar-CON(Me)2] ({Me3N+(CH2)2O(CH2)2O(CH2)2CO}-[Pen]D(NMe2)T[Trp(7-Me)][Lys(Me)](Ac)[Pen]Y(X53)[2Nal][Thp][Lys(Me)](Ac)N[3Pal][Sar]-NMe2; disulfide 1-6)
142 A^2 | CC(=O)N(C)CCCC[C@@H]1NC(=O)[C@H](Cc2c[nH]c3c(C)cccc23)NC(=O)[C@H]([C@@H](C)O)NC(=O)[C@H](CC(=O)N(C)C)NC(=O)[C@@H](NC(=O)CCOCCOCC[N+](C)(C)C)C(C)(C)SSC(C)(C)[C@@H](C(=O)N[C@@H](Cc2ccc(OCCCC[N+](C)(C)C)cc2)C(=O)N[C@@H](Cc2ccc3ccccc3c2)C(=O)NC2(C(=O)N[C@@H](CCCCN(C)C(C)=O)C(=O)N[C@@H](CC(N)=O)C(=O)N[C@@H](Cc3cccnc3)C(=O)N(C)CC(=O)N(C)C)CCOCC2)NC1=O [compound 226, cPEG3aCO-Pen(3)-N(N(Me)2)-T-7MeW-K(NMeAc)-Pen(3)-TMA4F-2Nal-THP-K(NMeAc)-N-3Pya-Sar-CON(Me)2] ({Me3N+(CH2)2O(CH2)2O(CH2)2CO}-[Pen]D(NMe2)T[Trp(7-Me)][Lys(Me)](Ac)[Pen]Y(X72)[2Nal][Thp][Lys(Me)](Ac)N[3Pal][Sar]-NMe2; disulfide 1-6)
139 A^2 | COCC[N+](C)(C)CCCCOc1ccc(C[C@H](NC(=O)[C@H]2NC(=O)[C@H](CCCCN(C)C(C)=O)NC(=O)[C@H](Cc3c[nH]c4c(C)cccc34)NC(=O)[C@H]([C@@H](C)O)NC(=O)[C@H](CC(=O)N(C)C)NC(=O)[C@@H](NC(=O)CCOCCOCC[N+](C)(C)C)C(C)(C)SSC2(C)C)C(=O)N[C@@H](Cc2ccc3ccccc3c2)C(=O)NC2(C(=O)N[C@@H](CCCCN(C)C(C)=O)C(=O)N[C@@H](CC(N)=O)C(=O)N[C@@H](Cc3cccnc3)C(=O)N(C)CC(=O)N(C)C)CCOCC2)cc1 [compound 227, cPEG3aCO-Pen(3)-N(N(Me)2)-T-7MeW-K(NMeAc)-Pen(3)-mPEG2TMA4F-2Nal-THP-K(NMeAc)-N-3Pya-Sar-CON(Me)2] ({Me3N+(CH2)2O(CH2)2O(CH2)2CO}-[Pen]D(NMe2)T[Trp(7-Me)][Lys(Me)](Ac)[Pen]Y(X88)[2Nal][Thp][Lys(Me)](Ac)N[3Pal][Sar]-NMe2; disulfide 1-6)
139 A^2 | COCC[N+](C)(C)CCOc1ccc(C[C@H](NC(=O)[C@H]2NC(=O)[C@H](CCCCN(C)C(C)=O)NC(=O)[C@H](Cc3c[nH]c4c(C)cccc34)NC(=O)[C@H]([C@@H](C)O)NC(=O)[C@H](CC(=O)N(C)C)NC(=O)[C@@H](NC(=O)CCOCCOCC[N+](C)(C)C)C(C)(C)SSC2(C)C)C(=O)N[C@@H](Cc2ccc3ccccc3c2)C(=O)NC2(C(=O)N[C@@H](CCCCN(C)C(C)=O)C(=O)N[C@@H](CC(N)=O)C(=O)N[C@@H](Cc3cccnc3)C(=O)N(C)CC(=O)N(C)C)CCOCC2)cc1 [compound 228, cPEG3aCO-Pen(3)-N(N(Me)2)-T-7MeW-K(NMeAc)-Pen(3)-mPEG2TMA2F-2Nal-THP-K(NMeAc)-N-3Pya-Sar-CON(Me)2] ({Me3N+(CH2)2O(CH2)2O(CH2)2CO}-[Pen]D(NMe2)T[Trp(7-Me)][Lys(Me)](Ac)[Pen]Y(X92)[2Nal][Thp][Lys(Me)](Ac)N[3Pal][Sar]-NMe2; disulfide 1-6)
147 A^2 | CC(=O)N(C)CCCC[C@@H]1NC(=O)[C@H](Cc2c[nH]c3c(C)cccc23)NC(=O)[C@H]([C@@H](C)O)NC(=O)[C@H](CC(=O)N(C)C)NC(=O)[C@@H](NC(=O)CCOCCOCC[N+](C)(C)C)C(C)(C)SSC(C)(C)[C@@H](C(=O)N[C@@H](Cc2ccc(OCC[n+]3ccccc3)cc2)C(=O)N[C@@H](Cc2ccc3ccccc3c2)C(=O)NC2(C(=O)N[C@@H](CCCCN(C)C(C)=O)C(=O)N[C@@H](CC(N)=O)C(=O)N[C@@H](Cc3cccnc3)C(=O)N(C)CC(=O)N(C)C)CCOCC2)NC1=O [compound 231, cPEG3aCO-Pen(3)-N(N(Me)2)-T-7MeW-K(NMeac)-Pen(3)-NPyEF-2Nal-THP-K(NMeAc)-N-3Pya-Sar-CON(Me)2] ({Me3N+(CH2)2O(CH2)2O(CH2)2CO}-[Pen]D(NMe2)T[Trp(7-Me)][Lys(Me)](Ac)[Pen]Y(X91)[2Nal][Thp][Lys(Me)](Ac)N[3Pal][Sar]-NMe2; disulfide 1-6)
141 A^2 | CC(=O)N(C)CCCC[C@@H]1NC(=O)[C@H](Cc2c[nH]c3c(C)cccc23)NC(=O)[C@H]([C@@H](C)O)NC(=O)[C@H](CC(=O)N(C)C)NC(=O)[C@@H](NC(=O)CCOCCOCC[N+](C)(C)C)C(C)(C)SSC(C)(C)[C@@H](C(=O)N[C@@H](Cc2ccc(OCCN(C)CCC[N+](C)(C)C)cc2)C(=O)N[C@@H](Cc2ccc3ccccc3c2)C(=O)NC2(C(=O)N[C@@H](CCCCN(C)C(C)=O)C(=O)N[C@@H](CC(N)=O)C(=O)N[C@@H](Cc3cccnc3)C(=O)N(C)CC(=O)N(C)C)CCOCC2)NC1=O [compound 234, cPEG3aCO-Pen(3)-N(N(Me)2)-T-7MeW-K(NMeAc)-Pen(3)-AEF(MePrpa)-2Nal-THP-K(NMeAc)-N-3Pya-Sar-CON(Me)2] ({Me3N+(CH2)2O(CH2)2O(CH2)2CO}-[Pen]D(NMe2)T[Trp(7-Me)][Lys(Me)](Ac)[Pen]Y(X84)[2Nal][Thp][Lys(Me)](Ac)N[3Pal][Sar]-NMe2; disulfide 1-6)
149 A^2 | CC(=O)NCCCC[C@@H]1NC(=O)[C@H](Cc2c[nH]c3c(C)cccc23)NC(=O)[C@H]([C@@H](C)O)NC(=O)[C@H](CC(N)=O)NC(=O)[C@@H](NC(C)=O)C(C)(C)SSC(C)(C)[C@@H](C(=O)N[C@@H](Cc2ccc(OCCn3cc(CC[N+](C)(C)C)nn3)cc2)C(=O)N[C@@H](Cc2ccc3ccccc3c2)C(=O)NC2(C(=O)N[C@@H](CCCCNC(C)=O)C(=O)N[C@@H](CC(N)=O)C(=O)N[C@@H](Cc3cccnc3)C(=O)N(C)CC(N)=O)CCOCC2)NC1=O [compound 235] (Ac-[Pen]NT[Trp(7-Me)]K(Ac)[Pen]Y(X14)[2Nal][Thp]K(Ac)N[3Pal][Sar]-NH2; disulfide 1-6 (inferred))
159 A^2 | CC(=O)N(C)CCCC[C@@H]1NC(=O)[C@H](Cc2c[nH]c3c(C)cccc23)NC(=O)[C@H]([C@@H](C)O)NC(=O)[C@H](CC(=O)N(C)C)NC(=O)[C@@H](NC(=O)CCOCCOCC[N+](C)(C)C)C(C)(C)SSC(C)(C)[C@@H](C(=O)N[C@@H](Cc2ccc(OCCCCCCCCC(=O)O)cc2)C(=O)N[C@@H](Cc2ccc3ccccc3c2)C(=O)NC2(C(=O)N[C@@H](CCCCN(C)C(C)=O)C(=O)N[C@@H](CC(N)=O)C(=O)N[C@@H](Cc3cccnc3)C(=O)N(C)CC(=O)N(C)C)CCOCC2)NC1=O [compound 236, cPEG3aCO-Pen(3)-N(N(Me)2)-T-7MeW-K(NMeAc)-Pen(3)-Y(C9OH)-2Nal-THP-K(NMeAc)-N-3Pya-Sar-CON(Me)2] ({Me3N+(CH2)2O(CH2)2O(CH2)2CO}-[Pen]D(NMe2)T[Trp(7-Me)][Lys(Me)](Ac)[Pen]Y(X42)[2Nal][Thp][Lys(Me)](Ac)N[3Pal][Sar]-NMe2; disulfide 1-6)
